In assay [1] the target is T1, hENPP1 (Homo sapiens, UniProt P22413).
T1 sequence (P22413 98-925): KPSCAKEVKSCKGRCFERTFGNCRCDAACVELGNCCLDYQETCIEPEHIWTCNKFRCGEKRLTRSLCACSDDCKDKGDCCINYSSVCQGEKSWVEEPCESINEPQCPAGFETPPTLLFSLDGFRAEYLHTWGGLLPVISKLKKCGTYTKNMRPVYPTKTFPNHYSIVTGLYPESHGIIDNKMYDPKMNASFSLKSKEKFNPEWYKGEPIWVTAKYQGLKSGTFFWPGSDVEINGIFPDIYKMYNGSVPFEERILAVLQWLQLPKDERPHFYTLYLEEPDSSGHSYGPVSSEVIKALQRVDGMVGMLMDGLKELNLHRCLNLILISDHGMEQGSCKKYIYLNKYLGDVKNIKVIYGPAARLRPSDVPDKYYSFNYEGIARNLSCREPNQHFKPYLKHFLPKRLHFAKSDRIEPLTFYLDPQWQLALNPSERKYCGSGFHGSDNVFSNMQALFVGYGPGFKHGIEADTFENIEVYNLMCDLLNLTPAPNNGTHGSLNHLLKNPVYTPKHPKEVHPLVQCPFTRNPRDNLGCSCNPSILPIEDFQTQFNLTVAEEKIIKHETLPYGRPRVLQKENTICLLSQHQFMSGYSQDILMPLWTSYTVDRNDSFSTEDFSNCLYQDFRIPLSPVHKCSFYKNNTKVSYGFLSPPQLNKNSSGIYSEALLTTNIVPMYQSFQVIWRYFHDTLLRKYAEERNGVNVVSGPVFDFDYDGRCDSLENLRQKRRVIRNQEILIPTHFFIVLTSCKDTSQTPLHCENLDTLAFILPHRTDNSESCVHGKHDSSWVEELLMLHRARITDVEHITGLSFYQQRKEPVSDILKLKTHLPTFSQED
The assay can be described thus: Differential scanning fluorimetry (DSF) thermal shift of hENPP1. It is filed as binding. As to conditions: for ΔT m: DSF. The procedure:
DSF experiments were performed using a Bio-Rad CFX96 thermocycler, with the fluorescence intensity measured with excitation and emission at 490 and 570 nm, respectively. Plates were heated from 20 to 100°C at a heating rate of 1.0°C min^−1. Protein was present at a final concentration of 15 µg ml^−1. The well volume was 20 µl. The buffer was 50 mM Tris–HCl pH 7.4, 150 mM NaCl, 50 µM ZnCl2. […] Ligands and controls were present in triplicate.
(In general: Differential scanning fluorimetry follows unfolding on heating by fluorescence.)

Assay [2] deals with T1, hENPP1. Briefly: Surface plasmon resonance (SPR) binding to immobilised hENPP1 98–925, 1:1 steady-state affinity model. Further details: hENPP1^98–925 was coupled to the chip surface at 25°C; made in house; host or cells: 293-F cells (human), with 5 µM kifunensine. Here is the method: The protein was diluted to 25 µg ml^−1 at pH 6.0 [10 mM 2-(N-morpholino)ethanesulfonic acid (MES), 0.005%(v/v) Tween 20] and injected to an immobilization level of 8–10 kRU. The surface was then blocked with 1 M ethanolamine pH 8.0 for 7 min. SPR experiments were performed at 25°C in SPR running buffer consisting of 50 mM Tris pH 7.4, 150 mM NaCl, 50 µM ZnCl2, 0.005%(v/v) Tween 20, 2%(v/v) DMSO. When performing dose–response testing, analytes were serially diluted (twofold or threefold), injected for 30–90 s contact time and allowed to dissociate back to baseline. The flow rate was 60 µl min^−1. Binding sensorgrams were processed, solvent-corrected and double-referenced using the Scrubber software (BioLogic Software, Australia). Responses at equilibrium for each analyte were fitted to a 1:1 steady-state affinity model that was available within Scrubber.
On the technique in general: Surface plasmon resonance follows binding to a sensor surface in real time, without labels.

[3] abbreviates: Determined by SPR, triplicates ± SD, 25°C, pH 7.4.

Molecules are shown by their SMILES.

In the case of `Nc1nc2c(ncn2[C@@H]2O[C@@H]3COP(=O)(O)O[C@H]4[C@@H](O)[C@H](n5cnc6c(N)ncnc65)O[C@@H]4COP(=O)(O)O[C@H]3[C@H]2O)c(=O)[nH]1` [3′3′-cGAMP], in assay [1] (tested at 10 µM), the ΔT m entry is given as “+1.2”. The equilibrium dissociation constant (Kd) (usually the equilibrium constant for the complex coming apart) stood at 1300 ± 300 nM in assay [2] (setting [3]) and 1300 nM in assay [2] (SPR).
Regarding `Nc1ncnc2c1ncn2[C@@H]1O[C@H](COP(=O)(O)OP(=O)(O)O)[C@@H](O)[C@H]1O` [ADP], the ΔT m result in assay [1] (compounds at 100 µM) was “+3.3”. The same compound showed a Kd in assay [2] (setting [3]) of 56 ± 3 nM.
With `Nc1ncnc2c1ncn2[C@@H]1O[C@H](COP(=O)(O)O)[C@@H](O)[C@H]1O` [AMP], the ΔT m result in assay [1] (compounds at 100 µM) is reported as “+2.7”. The same compound came in with a Kd in assay [2] (setting [3]) of 103 ± 8 nM.
For `Nc1ccn([C@@H]2O[C@H](COP(=O)(O)O)[C@@H](O)[C@H]2O)c(=O)n1` [CMP], in assay [1] (compounds at 100 µM), the ΔT m entry is reported as “+2.1”. Further, the Kd is 1500 ± 300 nM in assay [2] (setting [3]) and greater than 1000 nM in assay [2] (SPR).
The compound `COc1ccc2c(Oc3ccc(NS(N)(=O)=O)cc3)ccnc2c1` [Ex54] displayed a Kd in assay [2] (setting [3]) of 100 ± 20 nM.
Turning to `Nc1nc(=O)c2ncn([C@@H]3O[C@H](COP(=O)(O)O)[C@@H](O)[C@H]3O)c2[nH]1` [GMP], in assay [1] (DSF melting curve, Supplementary Fig. S6), the Tm is reported as 60.34 (+/-0.03). Besides, the ΔT m result in assay [1] (compounds at 100 µM) is “+1.0”. The compound also displayed a Kd in assay [2] (setting [3]) of 470 ± 60 nM.
Turning to `COc1cc2ncnc(N3CCC(CNS(N)(=O)=O)CC3)c2cc1OC` [QPS2], the ΔT m result in assay [1] (compounds at 100 µM) is “+4.5”. In assay [2] (setting [3]), this compound displayed a dissociation constant (Kd) of 55 ± 6 nM.
Take `Cc1cn([C@H]2C[C@H](O)[C@@H](COP(=O)(O)O)O2)c(=O)[nH]c1=O` [TMP]: the ΔT m result in assay [1] (compounds at 100 µM) is listed as “+1.2”. Besides, the Kd in assay [2] (setting [3]) is 1800 ± 300 nM; in assay [2] (SPR), greater than 1000 nM.
As for `O=c1ccn([C@@H]2O[C@H](COP(=O)(O)O)[C@@H](O)[C@H]2O)c(=O)[nH]1` [UMP], the ΔT m result in assay [1] (compounds at 100 µM) was “+1.8”. In addition, the Kd in assay [2] (setting [3]) is 1100 ± 300 nM; in assay [2] (SPR) it was greater than 1000 nM.

The record behind these values is publication PMC7466750, “Crystal structures of human ENPP1 in apo and bound forms” (Acta Crystallographica. Section D, Structural Biology, 2020).
